Data on eight compounds can be found in PubChem BioAssay (NCI).

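Values below derive from 48-hour exposures of cells grown in 96-well plates, with endpoints linearly interpolated between the two concentrations bracketing the appropriate inhibition level. Definition used: TGI = concentration required for complete inhibition of growth.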

Common to all, as to experiment: NCI anticancer screen, dose series, 48 h
Experiment [1] has as its system SK-MEL-28 melanoma.
Experiment [2] relates to HS 578T breast.
Experiment [3] concerns SW-620 colon.
Experiment [4] concerns T-47D breast.
The test system of experiment [5] is OVCAR-8 ovarian.
The subject of experiment [6] is MALME-3M melanoma.
In experiment [7] the test system is OVCAR-5 ovarian.
Experiment [8] relates to MCF7 breast.
Experiment [9] has as its system CAKI-1 renal.
Experiment [10] deals with BT-549 breast.
For experiment [11], the system named is CCRF-CEM leukemia.
Experiment [12] has as its system RXF 393 renal.
Experiment [13] concerns KM12 colon.
Experiment [14] has as its system M14 melanoma.
The test system of experiment [15] is ACHN renal.
Experiment [16] deals with MOLT-4 leukemia.
For experiment [17], the system named is DU-145 prostate.
Experiment [18] relates to NCI-H226 lung.
The test system of experiment [19] is HCC-2998 colon.

In the case of `Cc1cccc(C)c1NC(=O)C(Cc1c[nH]c2ccccc12)NC(=O)OCc1ccccc1` (configuration not stated), the TGI in experiment [1] is 57.1 µM; in experiment [2], more than 100 µM; in experiment [3] it was more than 100 µM; in [4], 61.2 µM; in experiment [5] it was 89.2 µM; in [6] it was 52.8 µM. Further, the TGI in [7] was 51.6 µM; in experiment [8], 95.8 µM; in [9], 50.2 µM; in experiment [10] it was 65.3 µM; in experiment [11] it was 76.9 µM; in experiment [12], 36.4 µM. Also, the TGI in [13] stood at 57 µM; in [14], 31.7 µM; in experiment [15], 53.2 µM; in experiment [16], 63.7 µM; in [17], 51.6 µM.
For `Cc1c(O)nc(-n2[nH]c3c(c2=O)CCCC3)[nH]c1=O`, the TGI in experiment [1], in experiment [2], in experiment [3], in [4], in experiment [5] and in experiment [18] was more than 100 µM each time. The TGI in [6], in experiment [7], in [9], in experiment [10], in [11] and in experiment [12] was more than 100 µM each time. The TGI in experiment [13], in [14], in experiment [15], in experiment [16] and in experiment [17] was more than 100 µM throughout.
As to `Cc1c(/C=N\NC(=S)NCCNC(=S)N/N=C\c2c(C)n(C)n(-c3ccccc3)c2=O)c(=O)n(-c2ccccc2)n1C`, the TGI in experiment [2], in experiment [3], in experiment [4], in experiment [18], in [6] and in experiment [7] was more than 100 µM throughout. Moreover, the TGI in [19], in [9], in [10], in experiment [12], in experiment [13] and in experiment [14] was more than 100 µM each time. Moreover, the TGI in [15], in experiment [16] and in [17] was more than 100 µM throughout.
As for `Nc1ccc(N=Nc2c(S(=O)(=O)O)cc3ccccc3c2S(=O)(=O)O)cc1`, the TGI in experiment [1], in experiment [2], in experiment [3], in experiment [4], in experiment [5] and in experiment [18] was more than 100 µM throughout. Moreover, the TGI in experiment [6], in [7], in [19], in [9], in [10] and in experiment [11] was more than 100 µM in each case. Further, the TGI in [12], in [13], in experiment [14], in experiment [15], in experiment [16] and in experiment [17] was more than 100 µM each time.
As for `CC(C)c1cc2c(c(O)c1O)[C@@]1(C(=O)O)CCCC(C)(C)[C@@H]1CC2`, the TGI was 29.8 µM in [1]; 67.8 µM in [2]; more than 100 µM in experiment [3]; 55 µM in [4]; 30.1 µM in experiment [5]; 29.4 µM in [18]. The TGI in [7] stood at 40 µM; in experiment [8], 45.2 µM; in experiment [19], 28.8 µM; in [9], 51.8 µM; in experiment [10], 28.7 µM; in experiment [11], 42.3 µM. Besides, the TGI in experiment [12] is 66.7 µM; in experiment [13], 27 µM; in [15], 26.2 µM; in [16], 37.2 µM; in experiment [17], more than 100 µM.
Turning to `COC1=CC(=O)c2c(c(-c3nc(C)cs3)cn2C)C1=O`, the TGI is 16.1 µM in experiment [1]; 8.48 µM in [2]; 94.6 µM in experiment [3]; 53.4 µM in experiment [4]; more than 49.6 µM in experiment [5]; 77.2 µM in experiment [18]. The TGI was more than 43.9 µM in [7]; 10.9 µM in [8]; 18 µM in [19]; 21.3 µM in [9]; more than 57.4 µM in experiment [10]; 35.1 µM in experiment [11]. Also, the TGI in experiment [12] was 77.8 µM; in [13] it was 26.7 µM; in experiment [14], 7.39 µM; in experiment [15], more than 100 µM; in [16] it was more than 80.9 µM; in experiment [17], 18.3 µM.
On to `O=C(NCP(=O)(Oc1ccccc1)Oc1ccccc1)OCc1ccccc1`, for which the TGI in [1], in experiment [2], in experiment [3], in experiment [4], in [5] and in experiment [18] was more than 100 µM throughout. The TGI in experiment [6], in [7], in [8], in experiment [9], in experiment [10] and in [11] was more than 100 µM in each case. Moreover, the TGI in [13], in experiment [14], in experiment [15] and in [16] was more than 100 µM in each case.
Take `C=C1CC(C#N)(C#N)[C@H]2C3CCCC3C[C@@H]12` (some centres not stated) (tested in a mixture with another compound): the TGI in [1] was 42.4 µM; in [2], more than 100 µM; in [3], 29.7 µM; in [4] it was more than 100 µM; in experiment [5], 33 µM; in [18], 61.9 µM. Further, the TGI in experiment [8] came out at 29.8 µM; in experiment [10], 56.8 µM; in experiment [12] it was 41.7 µM; in experiment [13], 43.3 µM; in experiment [14], 29.2 µM; in experiment [15], 61.1 µM. For the same compound, the TGI in experiment [16] was 43.5 µM; in experiment [17], more than 100 µM.
